From patent US8871753B2, “Macrocyclic compounds and their use as kinase inhibitors” (Incyte Corporation, priority 2008, dated 2014)
Structures can show the parent of a compound that is named as a salt. Where two headings read alike, the source gives them in different places.

What was measured:
Format in all cases: biochemical
[1] = biological target: T1, human JAK2 (a.a. 828-1132) (Homo sapiens, UniProt O60674); assay: In vitro JAK kinase assay (HTRF, phosphorylation of a biotinylated peptide), JAK2
T1 construct: JAK2 (a.a. 828-1132); His tag (N); made in house; host or cells: insect cells (baculovirus)
Outline: (§1)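 Kinase reactions ran at room temperature for 1 h with ATP matched per isoform (JAK1 90 μM, JAK2 30 μM, JAK3 3 μM). After an EDTA stop, the phosphorylated biotin-peptide was read by HTRF using Eu-Py20 and SA-APC after 40 min binding.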

[2] = biological target: T2, human JAK3 (a.a. 781-1124) (Homo sapiens, UniProt P52333); assay: In vitro JAK kinase assay (HTRF, phosphorylation of a biotinylated peptide), JAK3
T2 construct: JAK3 (a.a. 781-1124); His tag (N); made in house; host or cells: insect cells (baculovirus)
Outline: as §1

[3] = biological target: T3, Recombinant Human Anaplastic Lymphoma Kinase (Homo sapiens, UniProt Q9UM73); assay: ALK HTRF kinase assay
T3 construct: purchased Invitrogen, Carlsbad, Calif
Outline: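 Compounds were incubated with recombinant human ALK and a biotin-tagged peptide substrate. Product was captured with streptavidin-APC and probed with a europium anti-phosphotyrosine antibody, and plates were read for time-resolved fluorescence. Dose-response data were fitted to derive IC50.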

[4] = biological target: T4, human JAK1 (a.a. 837-1142) (Homo sapiens, UniProt P23458); assay: In vitro JAK kinase assay (HTRF, phosphorylation of a biotinylated peptide), JAK1; conditions: read-out: JAK1 IC50
T4 construct: human JAK1 (a.a. 837-1142); His tag (N); made in house; host or cells: insect cells (baculovirus)
Outline: as §1

TYK2 = TYK2 (Homo sapiens, UniProt P29597); assay: TYK2 kinase inhibition (Table A1)
[5] = compound at a concentration of 500 nM or 1 mM (not specified), cells shown as percentage
[6] = Table B1, cells without percent sign
[7] = method AA1 (30 μM ATP) or AA2 (1000 μM ATP), not stated per value
[8] = method AA1 (3 μM ATP) or AA2 (1000 μM ATP), not stated per value
[9] = compound at 500 nM or 1 mM, 90 μM ATP
[10] = method AA1 (90 μM ATP) or AA2 (1000 μM ATP), not stated per value

T4 sequence (P23458 849-1154): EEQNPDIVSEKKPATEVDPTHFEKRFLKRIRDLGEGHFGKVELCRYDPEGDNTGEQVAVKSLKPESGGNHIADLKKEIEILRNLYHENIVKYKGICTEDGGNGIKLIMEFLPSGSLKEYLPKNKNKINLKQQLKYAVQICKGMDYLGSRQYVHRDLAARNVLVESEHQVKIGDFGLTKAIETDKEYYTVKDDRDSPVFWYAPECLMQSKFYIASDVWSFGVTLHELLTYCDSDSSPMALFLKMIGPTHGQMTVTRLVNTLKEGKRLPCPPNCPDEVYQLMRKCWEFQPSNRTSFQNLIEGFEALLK
Sequence of TYK2 (P29597 whole entry): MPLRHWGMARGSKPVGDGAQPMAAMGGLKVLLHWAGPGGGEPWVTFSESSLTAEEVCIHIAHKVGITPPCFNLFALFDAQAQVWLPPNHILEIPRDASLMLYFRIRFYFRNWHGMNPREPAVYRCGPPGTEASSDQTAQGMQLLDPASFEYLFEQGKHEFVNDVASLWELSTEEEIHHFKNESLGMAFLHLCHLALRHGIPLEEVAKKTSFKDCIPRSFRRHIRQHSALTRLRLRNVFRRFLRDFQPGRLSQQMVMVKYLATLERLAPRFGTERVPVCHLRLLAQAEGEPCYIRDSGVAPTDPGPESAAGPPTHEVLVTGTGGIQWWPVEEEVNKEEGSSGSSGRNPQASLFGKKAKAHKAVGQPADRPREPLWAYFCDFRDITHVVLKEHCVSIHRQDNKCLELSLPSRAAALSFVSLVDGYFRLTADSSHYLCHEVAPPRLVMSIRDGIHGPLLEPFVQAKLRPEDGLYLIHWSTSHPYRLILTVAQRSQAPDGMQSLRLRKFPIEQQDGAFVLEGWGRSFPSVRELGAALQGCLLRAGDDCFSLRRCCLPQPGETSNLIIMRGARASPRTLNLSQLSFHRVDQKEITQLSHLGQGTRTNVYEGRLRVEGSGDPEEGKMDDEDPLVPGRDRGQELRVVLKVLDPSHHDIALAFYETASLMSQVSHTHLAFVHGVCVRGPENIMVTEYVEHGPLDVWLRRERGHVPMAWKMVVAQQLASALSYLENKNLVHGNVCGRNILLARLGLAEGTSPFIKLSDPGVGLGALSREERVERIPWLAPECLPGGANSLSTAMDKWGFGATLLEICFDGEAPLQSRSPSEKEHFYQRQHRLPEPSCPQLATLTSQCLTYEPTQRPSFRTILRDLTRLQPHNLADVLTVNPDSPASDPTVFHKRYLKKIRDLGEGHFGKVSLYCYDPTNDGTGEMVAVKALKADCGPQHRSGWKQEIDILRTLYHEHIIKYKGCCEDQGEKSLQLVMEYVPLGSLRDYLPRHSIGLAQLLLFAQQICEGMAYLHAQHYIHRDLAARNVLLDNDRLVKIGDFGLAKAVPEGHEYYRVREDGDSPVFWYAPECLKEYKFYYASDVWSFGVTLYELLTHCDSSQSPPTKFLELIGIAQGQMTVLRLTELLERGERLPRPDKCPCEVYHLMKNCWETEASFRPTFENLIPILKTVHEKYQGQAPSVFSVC
T1 sequence (O60674 828-1132): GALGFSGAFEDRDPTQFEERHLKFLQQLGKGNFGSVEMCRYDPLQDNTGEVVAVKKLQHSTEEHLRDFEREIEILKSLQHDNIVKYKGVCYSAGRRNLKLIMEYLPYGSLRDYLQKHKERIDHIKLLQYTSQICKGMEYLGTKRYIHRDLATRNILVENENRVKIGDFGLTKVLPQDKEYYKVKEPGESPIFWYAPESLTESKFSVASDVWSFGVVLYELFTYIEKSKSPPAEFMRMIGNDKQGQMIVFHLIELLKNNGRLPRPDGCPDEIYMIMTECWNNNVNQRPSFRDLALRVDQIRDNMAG
T3 sequence (Q9UM73 19-1620): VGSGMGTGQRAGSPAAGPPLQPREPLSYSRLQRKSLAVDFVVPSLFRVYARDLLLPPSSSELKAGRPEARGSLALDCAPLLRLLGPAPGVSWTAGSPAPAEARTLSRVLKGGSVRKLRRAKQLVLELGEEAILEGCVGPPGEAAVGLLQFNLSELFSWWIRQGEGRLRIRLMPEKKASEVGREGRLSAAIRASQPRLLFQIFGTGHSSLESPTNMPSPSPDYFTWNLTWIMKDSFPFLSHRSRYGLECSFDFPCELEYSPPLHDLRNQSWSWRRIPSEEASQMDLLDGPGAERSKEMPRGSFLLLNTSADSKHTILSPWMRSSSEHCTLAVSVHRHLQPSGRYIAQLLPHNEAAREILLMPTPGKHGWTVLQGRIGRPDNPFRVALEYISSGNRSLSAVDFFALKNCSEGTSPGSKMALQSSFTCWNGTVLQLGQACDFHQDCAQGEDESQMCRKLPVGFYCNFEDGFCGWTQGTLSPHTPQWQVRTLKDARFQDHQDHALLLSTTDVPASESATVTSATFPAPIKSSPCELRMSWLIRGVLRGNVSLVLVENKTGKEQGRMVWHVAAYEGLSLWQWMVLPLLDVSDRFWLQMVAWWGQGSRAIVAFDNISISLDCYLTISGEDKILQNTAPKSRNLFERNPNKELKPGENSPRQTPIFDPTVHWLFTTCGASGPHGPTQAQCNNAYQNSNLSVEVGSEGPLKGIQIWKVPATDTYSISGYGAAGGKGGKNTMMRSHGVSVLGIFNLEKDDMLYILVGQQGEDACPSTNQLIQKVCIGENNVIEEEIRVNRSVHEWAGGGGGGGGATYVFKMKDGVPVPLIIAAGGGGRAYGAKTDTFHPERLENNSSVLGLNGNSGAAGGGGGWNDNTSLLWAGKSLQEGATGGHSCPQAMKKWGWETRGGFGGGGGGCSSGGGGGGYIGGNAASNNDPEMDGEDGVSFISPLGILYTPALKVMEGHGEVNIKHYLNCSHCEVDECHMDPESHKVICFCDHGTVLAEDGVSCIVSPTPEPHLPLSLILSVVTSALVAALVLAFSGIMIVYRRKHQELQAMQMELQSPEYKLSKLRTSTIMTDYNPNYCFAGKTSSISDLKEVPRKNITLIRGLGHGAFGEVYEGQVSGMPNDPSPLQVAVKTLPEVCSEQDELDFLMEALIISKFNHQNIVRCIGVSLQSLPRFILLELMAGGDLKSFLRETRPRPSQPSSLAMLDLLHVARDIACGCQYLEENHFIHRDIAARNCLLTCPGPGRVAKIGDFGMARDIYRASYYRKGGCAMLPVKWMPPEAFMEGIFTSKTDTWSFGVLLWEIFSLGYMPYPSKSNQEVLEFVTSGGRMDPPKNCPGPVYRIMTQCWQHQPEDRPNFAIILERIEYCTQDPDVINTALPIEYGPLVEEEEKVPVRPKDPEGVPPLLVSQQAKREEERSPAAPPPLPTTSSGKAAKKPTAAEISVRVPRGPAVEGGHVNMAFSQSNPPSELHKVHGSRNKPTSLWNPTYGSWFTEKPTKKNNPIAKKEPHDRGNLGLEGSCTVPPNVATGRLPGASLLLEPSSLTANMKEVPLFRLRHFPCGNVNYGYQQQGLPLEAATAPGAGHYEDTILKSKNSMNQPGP
T2 sequence (P52333 781-1124): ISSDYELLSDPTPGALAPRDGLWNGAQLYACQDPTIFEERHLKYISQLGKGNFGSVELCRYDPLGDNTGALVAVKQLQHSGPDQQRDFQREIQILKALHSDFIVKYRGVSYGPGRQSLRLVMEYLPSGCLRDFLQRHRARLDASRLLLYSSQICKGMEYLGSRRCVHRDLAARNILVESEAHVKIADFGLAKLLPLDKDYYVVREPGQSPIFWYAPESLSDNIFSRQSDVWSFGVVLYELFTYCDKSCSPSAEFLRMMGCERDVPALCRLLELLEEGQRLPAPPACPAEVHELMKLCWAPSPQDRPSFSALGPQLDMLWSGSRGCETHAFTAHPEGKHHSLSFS

| SMILES | IC50 ([1]; Table B1) [nM] | IC50 ([2]; Table B1) [nM] | IC50 ([4]; Table B1) [nM] | IC50 (TYK2; Table B1) [nM] | IC50 (TYK2) [nM] | IC50 [1, 7] [nM] | IC50 [2, 8] [nM] | ALK % of inhibition at a concentration of 500 nM or 1 mM [3, 9] [%] | IC50 [4, 10] [nM] | also measured |
| --- | --- | --- | --- | --- | --- | --- | --- | --- | --- | --- |
| Clc1cnc2nc1Nc1cccc(c1)OCCOc1cccc(c1)N2 [Example D10, 6-Chloro-14,17-dioxa-2,4,8,24-tetraazatetracyclo[16.3.1.1(3,7).1(9,13)]tetracosa-1(22),3(24),4,6,9(23),10,12,18,20-nonaene trifluoroacetate] | – | – | – | – | – | – | – | – | – | IC50 ([1]; Table D1): 2.4 nM; IC50 ([2]; Table D1): 10 nM; IC50 ([3]; Table D1, 90 μM ATP): 791 nM; IC50 ([4]; Table D1): 8.2 nM; IC50 (TYK2; Table D1): 8.1 nM |
| Clc1cnc2nc1Nc1cccc(c1)SCCc1cccc(c1)N2 [Example D18, 6-Chloro-14-thia-2,4,8,23-tetraazatetracyclo[15.3.1.1(3,7).1(9,13)]tricosa-1(21),3(23),4,6,9(22),10,12,17,19-nonaene trifluoroacetate] | – | – | – | – | – | – | – | – | – | IC50 ([1]; Table D1): 6.6 nM; IC50 ([2]; Table D1): 24 nM; IC50 ([3]; Table D1, 90 μM ATP): 327 nM; IC50 ([4]; Table D1): 5.4 nM; IC50 (TYK2; Table D1): 19 nM |
| O=C(CCNC(=O)Nc1ccccc1)Nc1ccc2cc1CCc1cccc(c1)Nc1ncc(Cl)c(n1)N2 [Example A67, 3-[(Anilinocarbonyl)amino]-N-[6-chloro-2,4,8,22-tetraazatetracyclo[14.3.1.1(3,7).1(9,13)]docosa-1(20),3(22),4,6,9(21),10,12,16,18-nonaen-12-yl]propanamide trifluoroacetate] | – | – | – | – | 10 | 2.8 | 7.7 | 40 | 8 | – |
| O=C(Nc1ccc2cc1CCc1cccc(c1)Nc1ncc(Cl)c(n1)N2)C1CCN(C(=O)c2ccccc2)CC1 [Example A30, 1-Benzoyl-N-[6-chloro-2,4,8,22-tetraazatetracyclo[14.3.1.1(3,7).1(9,13)]docosa-1(20),3(22),4,6,9(21),10,12,16,18-nonaen-12-yl]piperidine-4-carboxamide trifluoroacetate] | – | – | – | – | 84 | 45 | 110 | 34 | 28 | – |
| NS(=O)(=O)N1CC[C@@H](C(=O)Nc2ccc3cc2CCc2cccc(c2)Nc2ncc(Cl)c(n2)N3)C1 [Example A74, (3R)-1-(Aminosulfonyl)-N-[6-chloro-2,4,8,22-tetraazatetracyclo[14.3.1.1(3,7).1(9,13)]docosa-1(20),3(22),4,6,9(21),10,12,16,18-nonaen-12-yl]pyrrolidine-3-carboxamide trifluoroacetate] | – | – | – | – | 17 | 3 | 3.3 | 48 | 6 | – |
| O=C(CC1CCN(C(=O)c2c[nH]nn2)CC1)Nc1ccc2cc1CCc1cncc(c1)Nc1ncc(Cl)c(n1)N2 [Example A137, N-[6-Chloro-2,4,8,18,22-pentaazatetracyclo[14.3.1.1(3,7).1(9,13)]docosa-1(20),3(22),4,6,9(21),10,12,16,18-nonaen-12-yl]-2-[1-(1H-1,2,3-triazol-4-ylcarbonyl)piperidin-4-yl]acetamide bis(trifluoroacetate)] | – | – | – | – | 1 | 3 | 41 | 54 | 0.6 | – |
| Cn1ccc(C(=O)N2CCC(CC(=O)Nc3ccc4cc3CCc3cncc(c3)Nc3ncc(Cl)c(n3)N4)CC2)n1 [Example A130, N-[6-Chloro-2,4,8,18,22-pentaazatetracyclo[14.3.1.1(3,7).1(9,13)]docosa-1(20),3(22),4,6,9(21),10,12,16,18-nonaen-12-yl]-2-{1-[(1-methyl-1H-pyrazol-3-yl)carbonyl]piperidin-4-yl}acetamide bis(trifluoroacetate)] | – | – | – | – | 4.8 | 9.2 | 203 | 26 | 1.2 | – |
| O=C(COc1ccc2cc1CCc1cncc(c1)Nc1ncc(Cl)c(n1)N2)N1CCn2c(nnc2C(F)(F)F)C1 [Example A249, 6-Chloro-12-{2-oxo-2-[3-(trifluoromethyl)-5,6-dihydro[1,2,4]triazolo[4,3-a]pyrazin-7(8H)-yl]ethoxy}-2,4,8,18,22pentaazatetracyclo[14.3.1.1(3,7).1(9,13)]docosa1(20),3(22),4,6,9(21),10,12,16,18-nonaene bis(trifluoroacetate)] | – | – | – | – | > 400 | > 400 | > 400 | 28 | 226 | – |
| NC(=O)COc1cc2cc(c1)Nc1nc(ncc1Cl)Nc1cccc(c1)CC2 [Example A23, 2-{[6-Chloro-2,4,8,22-tetraazatetracyclo[14.3.1.1(3,7).1(9,13)]docosa-1(20),3(22),4,6,9(21),10,12,16,18-nonaen-11-yl]oxy}acetyl)acetamide trifluoroacetate] | – | – | – | – | 37 | 1 | 22 | 33 | 12 | – |

More lines, main results first:

| IC50 ([1]; Table B1) [nM] | IC50 ([2]; Table B1) [nM] | IC50 ([4]; Table B1) [nM] | IC50 (TYK2; Table B1) [nM] | IC50 (TYK2) [nM] | IC50 [1, 7] [nM] | IC50 [2, 8] [nM] | ALK % of inhibition at a concentration of 500 nM or 1 mM [3, 9] [%] | IC50 [4, 10] [nM] | SMILES | also measured |
| --- | --- | --- | --- | --- | --- | --- | --- | --- | --- | --- |
| 10 | 61 | 5 | 19 | – | – | – | – | – | O=C(NCCNC(=O)c1ccccn1)Nc1ccc2cc1CCc1cccc(c1)Nc1ncc(Cl)c(n1)N2 [Example B190, N-{2-[({[6-Chloro-2,4,8,22-tetraazatetracyclo[14.3.1.1(3,7).1(9,13)]docosa-1(20),3(22),4,6,9(21),10,12,16,18-nonaen-12-yl]amino}carbonyl)amino]ethyl}pyridine-2-carboxamide trifluoroacetate] | ALK % of inhibition at a concentration of 500 nM or 1 mM [3, 5]: 11% |
| 0.91 | 4.7 | 2.7 | 3.3 | – | – | – | – | – | Cn1cncc1C(=O)Nc1ccc2cc1CCc1cccc(c1)Nc1ncc(Cl)c(n1)N2 [Example B51, N-[6-Chloro-2,4,8,22-tetraazatetracyclo[14.3.1.1(3,7).1(9,13)]docosa-1(20), 3(22),4,6,9(21),10,12,16,18-nonaen-12-yl]-1-methyl-1H-imidazole-5-carboxamide bis(trifluoroacetate)] | IC50 [3, 6]: 300 nM |
| – | – | – | – | > 1000 | – | – | – | – | O=C1Cc2cccc(c2)Nc2nc(ncc2Cl)Nc2cccc(c2)N1 [Example C11, 6-Chloro-2,4,8,16,23-pentaazatetracyclo[15.3.1.1(3,7).1(9,13)]tricosa-1(21),3(23),4,6,9(22),10,12,17,19-nonaen-15-one trifluoroacetate] | IC50 [1]: > 1000 nM; IC50 [2]: > 1000 nM; IC50 [3]: > 10000 nM; IC50 [4]: > 1000 nM |
| 26 | > 200 | 8.3 | 48 | – | – | – | – | – | O=C(c1coc(Nc2ccc3cc2CCc2cccc(c2)Nc2ncc(Cl)c(n2)N3)n1)N1CCN2CCCC2C1 (stereo not shown) [Example B296, 6-Chloro-N-[4-(hexahydropyrrolo[1,2-a]pyrazin-2(1H)-ylcarbonyl)-2,3-oxazol-2-yl]-2,4,8,22-tetraazatetracyclo[14.3.1.1(3,7).1(9,13)]docosa-1(20),3(22),4,6,9(21),10,12,16,18-nonaen-12-amine bis(trifluoroacetate)] | ALK % of inhibition at a concentration of 500 nM or 1 mM [3, 5]: 33% |
| 4.1 | 67 | 2.1 | 7.8 | – | – | – | – | – | N#Cc1cccc(NC(=O)Nc2ccc3cc2CCc2cccc(c2)Nc2ncc(Cl)c(n2)N3)c1 [Example B95, N-[6-Chloro-2,4,8,22-tetraazatetracyclo[14.3.1.1(3,7).1(9,13)]docosa-1(20), 3(22),4,6,9(21),10,12,16,18-nonaen-12-yl]-N′-(3-cyanophenyl)urea trifluoroacetate] | IC50 [3, 6]: > 1000 nM |
| 0.1 | 5.1 | 0.5 | 0.84 | – | – | – | – | – | O=S(=O)(Nc1ccc2cc1CCc1cccc(c1)Nc1ncc(Cl)c(n1)N2)c1ccc(Cl)cc1 [Example B139, 4-Chloro-N-[6-chloro-2,4,8,22-tetraazatetracyclo[14.3.1.1(3,7).1(9,13)]docosa-1(20),3(22),4,6,9(21),10,12,16,18-nonaen-12-yl]benzenesulfonamide trifluoroacetate] | IC50 [3, 6]: 290 nM |
| 3.6 | 2.7 | 2 | 16 | – | – | – | – | – | O=C(NCCNS(=O)(=O)c1ccc(Cl)nc1)Nc1ccc2cc1CCc1cccc(c1)Nc1ncc(Cl)c(n1)N2 [Example B331, 6-Chloro-N-{2-[({[6-chloro-2,4,8,22-tetraazatetracyclo[14.3.1.1(3,7).1(9,13)]docosa-1(20),3(22),4,6,9(21),10,12,16,18-nonaen-12-yl]amino}carbonyl)amino]ethyl}pyridine-3-sulfonamide trifluoroacetate] | ALK % of inhibition at a concentration of 500 nM or 1 mM ([3]; percentage inhibition of the example compound at a concentration of 500 nM or 1 mM (not specified which)): 27% |
| 1.1 | 8.5 | 1.6 | 2.6 | – | – | – | – | – | CC(=O)Nc1ccc(S(=O)(=O)Nc2ccc3cc2CCc2cccc(c2)Nc2ncc(Cl)c(n2)N3)cc1 [Example B161, N-[4-({[6-Chloro-2,4,8,22-tetraazatetracyclo[14.3.1.1(3,7).1(9,13)]docosa-1(20),3(22),4,6,9(21),10,12,16,18-nonaen-12-yl]amino}sulfonyl)phenyl]acetamide trifluoroacetate] | ALK % of inhibition at a concentration of 500 nM or 1 mM [3, 5]: 58% |
